Measurements from the supplement of paper PMC13207355.
Counter-ions that a name gives are not always drawn.

Experiments:
Details in all cases: exposure time: 72 h
E31 [1] = patient-derived glioblastoma stem cells of proneural subtype; test: phenotypic distance (Euclidean, principal components) from DMSO controls (arbitrary units); higher = stronger morphological change
E28 [2] = patient-derived glioblastoma stem cells of classical subtype; test: as above
FT3469 [3] = normal neural stem cell line; test: as above
E57 [4] = patient-derived glioblastoma stem cells of mesenchymal subtype; test: as above
E21 [5] = patient-derived glioblastoma stem cells of mesenchymal subtype; test: as above
E13 [6] = patient-derived glioblastoma stem cells of classical subtype; test: as above
E34 [7] = patient-derived glioblastoma stem cells of proneural subtype; test: as above
E31 [8] = test: surviving fraction (nuclei count normalised to DMSO); higher = more cells surviving (less toxic)
E28 [9] = test: as above
FT3469 [10] = test: as above
E57 [11] = test: as above
E21 [12] = test: as above
E13 [13] = test: as above
E34 [14] = test: as above
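For phenotypic distance (Euclidean, principal components) from DMSO controls in this document: cell Painting imaging in 384-well plates, CellProfiler features reduced to at least 20 principal components, Euclidean distance versus same-plate DMSO vehicle wells (0.1% v/v), median over six images per well.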
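For surviving fraction (nuclei count normalised to DMSO) in this document: nuclei counted by high-content imaging of Hoechst-stained cells in laminin-coated 384-well plates, relative to 0.1% DMSO vehicle wells, with staurosporine as cell-death control.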

C=C[C@H]1CN2CC[C@H]1C[C@@H]2[C@@H](O)c1ccnc2ccc(OC)cc12 [Quinidine hydrochloride monohydrate]
Details | phenotypic distance | surviving fraction
E13 [6], 4.1 nM | 2.06 | –
E13 [6], 12.3 nM | 2.74 | –
E13 [6], 37 nM | 0.288 | –
E13 [6], 111.1 nM | 0.43 | –
E13 [6], 333.3 nM | 3.29 | –
E13 [6], 1000 nM | 0.415 | –
E13 [6], 3000 nM | 0.498 | –
E13 [13], 4.1 nM | – | 0.965
E13 [13], 12.3 nM | – | 1.04
E13 [13], 37 nM | – | 1.06
E13 [13], 111.1 nM | – | 1.03
E13 [13], 333.3 nM | – | 0.954
E13 [13], 1000 nM | – | 1.09
E13 [13], 3000 nM | – | 1.01
E21 [5], 4.1 nM | 1.42 | –
E21 [5], 12.3 nM | 0.785 | –
E21 [5], 37 nM | 0.783 | –
E21 [5], 111.1 nM | 0.852 | –
E21 [5], 333.3 nM | 0.814 | –
E21 [5], 1000 nM | 0.565 | –
E21 [5], 3000 nM | 1.06 | –
E21 [12], 4.1 nM | – | 0.736
E21 [12], 12.3 nM | – | 1.03
E21 [12], 37 nM | – | 0.863
E21 [12], 111.1 nM | – | 1.03
E21 [12], 333.3 nM | – | 1
E21 [12], 1000 nM | – | 0.964
E21 [12], 3000 nM | – | 0.865
E28 [2], 4.1 nM | 0.692 | –
E28 [2], 12.3 nM | 0.479 | –
E28 [2], 37 nM | 0.471 | –
E28 [2], 111.1 nM | 0.837 | –
E28 [2], 333.3 nM | 0.667 | –
E28 [2], 1000 nM | 0.843 | –
E28 [2], 3000 nM | 0.738 | –
E28 [9], 4.1 nM | – | 1.12
E28 [9], 12.3 nM | – | 0.991
E28 [9], 37 nM | – | 1.14
E28 [9], 111.1 nM | – | 1.02
E28 [9], 333.3 nM | – | 1.15
E28 [9], 1000 nM | – | 1.07
E28 [9], 3000 nM | – | 1.2
E31 [1], 4.1 nM | 1.52 | –
E31 [1], 12.3 nM | 0.739 | –
E31 [1], 37 nM | 0.504 | –
E31 [1], 111.1 nM | 0.428 | –
E31 [1], 333.3 nM | 0.941 | –
E31 [1], 1000 nM | 0.478 | –
E31 [1], 3000 nM | 0.676 | –
E31 [8], 4.1 nM | – | 1.04
E31 [8], 12.3 nM | – | 0.915
E31 [8], 37 nM | – | 0.941
E31 [8], 111.1 nM | – | 0.942
E31 [8], 333.3 nM | – | 1.04
E31 [8], 1000 nM | – | 0.944
E31 [8], 3000 nM | – | 1.09
E34 [7], 4.1 nM | 1.26 | –
E34 [7], 12.3 nM | 0.809 | –
E34 [7], 37 nM | 1.05 | –
E34 [7], 111.1 nM | 0.841 | –
E34 [7], 333.3 nM | 0.778 | –
E34 [7], 1000 nM | 0.516 | –
E34 [7], 3000 nM | 0.396 | –
E34 [14], 4.1 nM | – | 1.06
E34 [14], 12.3 nM | – | 0.922
E34 [14], 37 nM | – | 0.904
E34 [14], 111.1 nM | – | 0.914
E34 [14], 333.3 nM | – | 1.02
E34 [14], 1000 nM | – | 0.91
E34 [14], 3000 nM | – | 0.984
E57 [4], 4.1 nM | 0.629 | –
E57 [4], 12.3 nM | 0.932 | –
E57 [4], 37 nM | 0.42 | –
E57 [4], 111.1 nM | 5.48 | –
E57 [4], 333.3 nM | 0.376 | –
E57 [4], 1000 nM | 0.318 | –
E57 [4], 3000 nM | 0.734 | –
E57 [11], 4.1 nM | – | 1.05
E57 [11], 12.3 nM | – | 1.09
E57 [11], 37 nM | – | 1.04
E57 [11], 111.1 nM | – | 1.07
E57 [11], 333.3 nM | – | 1.05
E57 [11], 1000 nM | – | 1.09
E57 [11], 3000 nM | – | 1.12
FT3469 [3], 4.1 nM | 1.14 | –
FT3469 [3], 12.3 nM | 0.621 | –
FT3469 [3], 37 nM | 0.809 | –
FT3469 [3], 111.1 nM | 0.891 | –
FT3469 [3], 333.3 nM | 0.965 | –
FT3469 [3], 1000 nM | 0.266 | –
FT3469 [3], 3000 nM | 0.69 | –
FT3469 [10], 4.1 nM | – | 0.974
FT3469 [10], 12.3 nM | – | 0.955
FT3469 [10], 37 nM | – | 1.03
FT3469 [10], 111.1 nM | – | 1.14
FT3469 [10], 333.3 nM | – | 1.03
FT3469 [10], 1000 nM | – | 0.998
FT3469 [10], 3000 nM | – | 0.957
